Earlier results as cited in patent US20120107430A1, “PRE-PROCEDURE MEAL REGIMEN” (priority 2009, published 2012).

Legend:
colon [1] = conditions: either diet (light breakfast then clear liquids, or normal breakfast, low residue lunch, then clear liquids); 200 patients
colon [2] = conditions: N=50 per arm; senna two doses 158 mg each, 8 hours apart; sodium phosphate 48 grams

O=P(O)(O)O [sodium phosphate]
good to excellent preparation (colon [1]): 93-95% | patients reporting good tolerance (colon [2]): 28 patients | patients reporting poor tolerance (colon [2]): 12 patients
